Here are results for 3 compounds from paper PMC4457528, “Identification of Novel Small Molecule Inhibitors of Oncogenic RET Kinase” (PLoS ONE, 2015).

What all share (assay): KinomeScan kinase panel, single concentration 10 µM
What all share (type): binding

Test [1] deals with T1, KinomeScan kinase panel (Homo sapiens, UniProt Q9NY57).
T1 construct: purchased DiscoveRx (KinomeScan)
The following applies: kinase YANK2; 10 µM; read-out: score (%).

Test [2] concerns the target T2, KinomeScan kinase panel (Homo sapiens, UniProt P11362).
T2 construct: purchased DiscoveRx (KinomeScan)
The conditions noted are these: FGFR1, 10 µM; read-out: score (%).

Test [3] deals with T3, KinomeScan kinase panel (Homo sapiens, UniProt Q96RR4).
T3 construct: purchased DiscoveRx (KinomeScan)
T3 sequence (Q96RR4 whole entry): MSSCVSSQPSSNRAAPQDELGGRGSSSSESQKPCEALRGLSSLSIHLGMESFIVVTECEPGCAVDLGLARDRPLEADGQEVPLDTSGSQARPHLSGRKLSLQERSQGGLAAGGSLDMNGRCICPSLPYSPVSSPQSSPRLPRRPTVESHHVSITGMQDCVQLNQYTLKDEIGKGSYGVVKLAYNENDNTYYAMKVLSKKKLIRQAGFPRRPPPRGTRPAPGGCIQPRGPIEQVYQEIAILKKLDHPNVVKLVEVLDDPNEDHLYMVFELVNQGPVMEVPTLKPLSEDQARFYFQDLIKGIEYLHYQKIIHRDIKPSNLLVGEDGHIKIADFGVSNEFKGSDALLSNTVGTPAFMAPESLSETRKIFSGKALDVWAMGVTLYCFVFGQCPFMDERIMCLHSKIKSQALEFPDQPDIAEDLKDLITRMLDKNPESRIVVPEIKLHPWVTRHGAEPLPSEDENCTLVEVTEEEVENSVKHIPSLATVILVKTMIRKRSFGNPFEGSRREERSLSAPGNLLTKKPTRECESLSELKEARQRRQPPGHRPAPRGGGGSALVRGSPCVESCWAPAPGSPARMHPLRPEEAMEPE
The following applies: CAMKK2, 10 µM; read-out: score (%).

The test system of test [4] is KinomeScan kinase panel.
The target of test [5] is T4, KinomeScan kinase panel (Homo sapiens, UniProt P31749).
T4 construct: purchased DiscoveRx (KinomeScan)
T4 sequence (P31749 whole entry): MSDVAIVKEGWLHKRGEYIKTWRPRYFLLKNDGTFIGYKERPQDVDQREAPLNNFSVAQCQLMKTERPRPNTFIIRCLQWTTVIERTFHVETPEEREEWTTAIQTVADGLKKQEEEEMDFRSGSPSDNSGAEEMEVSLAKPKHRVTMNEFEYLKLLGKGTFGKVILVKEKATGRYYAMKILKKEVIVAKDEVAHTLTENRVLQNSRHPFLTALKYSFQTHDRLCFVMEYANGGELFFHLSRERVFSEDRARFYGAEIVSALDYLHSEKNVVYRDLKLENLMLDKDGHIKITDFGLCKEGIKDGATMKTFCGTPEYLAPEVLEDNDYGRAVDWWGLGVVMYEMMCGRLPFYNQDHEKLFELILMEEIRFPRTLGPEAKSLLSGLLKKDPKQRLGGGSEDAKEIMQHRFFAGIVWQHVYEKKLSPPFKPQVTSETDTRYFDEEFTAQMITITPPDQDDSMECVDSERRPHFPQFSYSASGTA
The following applies: AKT1, 10 µM; read-out: score (%).

Test [6] addresses T5, KinomeScan kinase panel (Homo sapiens, UniProt P53667).
T5 construct: purchased DiscoveRx (KinomeScan)
The following applies: LIMK1, 10 µM; read-out: score (%).

The target in test [7] is T6, KinomeScan kinase panel (Homo sapiens, UniProt Q15831).
T6 construct: purchased DiscoveRx (KinomeScan)
T6 sequence (Q15831 1-433): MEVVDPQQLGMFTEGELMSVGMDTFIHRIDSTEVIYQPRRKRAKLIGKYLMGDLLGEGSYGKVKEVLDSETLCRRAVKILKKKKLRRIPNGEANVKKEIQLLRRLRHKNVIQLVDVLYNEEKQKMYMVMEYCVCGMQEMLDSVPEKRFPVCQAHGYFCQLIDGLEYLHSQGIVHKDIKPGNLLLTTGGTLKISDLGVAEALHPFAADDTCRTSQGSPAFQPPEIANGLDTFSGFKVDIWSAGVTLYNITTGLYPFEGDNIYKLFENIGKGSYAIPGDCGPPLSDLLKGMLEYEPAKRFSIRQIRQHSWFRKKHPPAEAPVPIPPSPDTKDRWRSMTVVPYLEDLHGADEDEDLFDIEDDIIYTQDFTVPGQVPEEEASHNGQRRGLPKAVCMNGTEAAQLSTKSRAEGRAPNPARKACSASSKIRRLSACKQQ
The conditions noted are these: LKB1, 10 µM; read-out: score (%).

The target in test [8] is T7, KinomeScan kinase panel (Homo sapiens, UniProt P42681).
T7 construct: purchased DiscoveRx (KinomeScan)
T7 sequence (P42681 1-527): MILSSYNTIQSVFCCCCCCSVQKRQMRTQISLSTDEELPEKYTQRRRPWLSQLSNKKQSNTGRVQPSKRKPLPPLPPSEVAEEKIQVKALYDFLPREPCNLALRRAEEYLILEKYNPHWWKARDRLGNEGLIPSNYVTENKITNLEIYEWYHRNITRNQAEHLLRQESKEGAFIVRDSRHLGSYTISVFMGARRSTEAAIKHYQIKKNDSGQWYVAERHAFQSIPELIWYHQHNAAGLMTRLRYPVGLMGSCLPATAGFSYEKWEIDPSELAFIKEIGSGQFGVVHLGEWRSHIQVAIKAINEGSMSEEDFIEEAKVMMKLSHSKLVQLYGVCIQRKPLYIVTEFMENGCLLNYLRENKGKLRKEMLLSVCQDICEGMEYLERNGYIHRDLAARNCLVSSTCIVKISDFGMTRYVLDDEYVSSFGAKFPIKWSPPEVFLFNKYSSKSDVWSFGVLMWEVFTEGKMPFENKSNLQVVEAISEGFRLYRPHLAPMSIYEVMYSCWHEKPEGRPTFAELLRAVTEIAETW
The conditions noted are these: kinase TXK; 10 µM; read-out: score (%).

The target of test [9] is T8, KinomeScan kinase panel (Homo sapiens, UniProt P24941).
T8 construct: purchased DiscoveRx (KinomeScan)
The following applies: CDK2, 10 µM.

Test [10] concerns the target T9, KinomeScan kinase panel (Homo sapiens, UniProt O14730).
T9 construct: purchased DiscoveRx (KinomeScan)
T9 sequence (O14730 1-519): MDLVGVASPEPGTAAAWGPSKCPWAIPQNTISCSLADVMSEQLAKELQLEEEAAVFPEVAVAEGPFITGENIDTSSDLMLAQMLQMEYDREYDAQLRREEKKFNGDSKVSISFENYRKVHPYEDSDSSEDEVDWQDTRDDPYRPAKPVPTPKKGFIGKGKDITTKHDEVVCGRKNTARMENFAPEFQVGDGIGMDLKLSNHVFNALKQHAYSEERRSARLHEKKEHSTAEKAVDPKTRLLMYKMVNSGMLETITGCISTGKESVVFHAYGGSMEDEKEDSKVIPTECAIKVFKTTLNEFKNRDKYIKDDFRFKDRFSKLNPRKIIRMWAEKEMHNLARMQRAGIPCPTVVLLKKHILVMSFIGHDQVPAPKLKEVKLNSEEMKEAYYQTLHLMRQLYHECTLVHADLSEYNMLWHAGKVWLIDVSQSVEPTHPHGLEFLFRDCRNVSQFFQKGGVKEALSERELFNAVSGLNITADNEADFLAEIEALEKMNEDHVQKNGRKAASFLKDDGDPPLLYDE
The conditions noted are these: read-out: score (%).

For test [11], the target named is T10, KinomeScan kinase panel (Homo sapiens, UniProt P35590).
T10 construct: purchased DiscoveRx (KinomeScan)
T10 sequence (P35590 22-1138): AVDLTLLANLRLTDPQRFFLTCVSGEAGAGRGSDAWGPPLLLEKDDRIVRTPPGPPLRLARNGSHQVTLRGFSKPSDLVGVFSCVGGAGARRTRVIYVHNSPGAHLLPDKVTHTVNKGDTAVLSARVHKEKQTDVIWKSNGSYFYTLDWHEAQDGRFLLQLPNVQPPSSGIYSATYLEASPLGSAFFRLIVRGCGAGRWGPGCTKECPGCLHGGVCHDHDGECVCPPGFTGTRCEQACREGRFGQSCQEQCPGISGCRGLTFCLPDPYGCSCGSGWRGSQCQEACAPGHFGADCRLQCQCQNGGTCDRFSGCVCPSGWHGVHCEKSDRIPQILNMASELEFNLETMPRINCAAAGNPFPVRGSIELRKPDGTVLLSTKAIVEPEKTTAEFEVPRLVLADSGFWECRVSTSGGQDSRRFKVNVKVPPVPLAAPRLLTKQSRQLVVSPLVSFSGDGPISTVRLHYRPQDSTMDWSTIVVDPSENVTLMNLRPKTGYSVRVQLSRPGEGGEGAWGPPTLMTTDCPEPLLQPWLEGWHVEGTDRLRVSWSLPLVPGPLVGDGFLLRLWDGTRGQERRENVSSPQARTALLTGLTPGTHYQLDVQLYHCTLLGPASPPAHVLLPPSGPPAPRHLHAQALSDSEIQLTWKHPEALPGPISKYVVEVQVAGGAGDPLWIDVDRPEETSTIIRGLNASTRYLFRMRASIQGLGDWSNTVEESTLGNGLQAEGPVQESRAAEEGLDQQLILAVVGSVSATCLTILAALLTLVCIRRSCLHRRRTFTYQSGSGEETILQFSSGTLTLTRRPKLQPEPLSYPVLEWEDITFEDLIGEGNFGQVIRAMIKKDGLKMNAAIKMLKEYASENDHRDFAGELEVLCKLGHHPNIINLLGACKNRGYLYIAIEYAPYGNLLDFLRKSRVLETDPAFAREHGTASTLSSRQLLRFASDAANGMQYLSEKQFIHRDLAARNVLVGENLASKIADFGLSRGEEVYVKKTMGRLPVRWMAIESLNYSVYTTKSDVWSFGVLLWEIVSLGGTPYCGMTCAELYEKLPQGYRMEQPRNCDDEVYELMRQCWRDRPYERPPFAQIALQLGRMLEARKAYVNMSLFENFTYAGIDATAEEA
The conditions noted are these: read-out: score (%).

The target in test [12] is T11, KinomeScan kinase panel (Homo sapiens, UniProt P50750).
T11 construct: purchased DiscoveRx (KinomeScan)
T11 sequence (P50750 whole entry): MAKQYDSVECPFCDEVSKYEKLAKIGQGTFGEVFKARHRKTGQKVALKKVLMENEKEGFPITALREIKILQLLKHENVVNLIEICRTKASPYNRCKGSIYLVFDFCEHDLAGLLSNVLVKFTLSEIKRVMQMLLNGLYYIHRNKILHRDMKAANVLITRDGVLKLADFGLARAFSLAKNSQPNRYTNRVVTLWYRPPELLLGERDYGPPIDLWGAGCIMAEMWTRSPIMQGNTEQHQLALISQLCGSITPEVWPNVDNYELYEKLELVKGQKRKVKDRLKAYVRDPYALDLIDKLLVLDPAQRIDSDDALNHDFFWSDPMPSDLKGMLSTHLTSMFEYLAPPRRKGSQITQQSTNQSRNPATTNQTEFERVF
The conditions noted are these: CDK9, 10 µM; read-out: score (%).

Test [13] deals with T12, KinomeScan kinase panel (Homo sapiens, UniProt O14965).
T12 construct: purchased DiscoveRx (KinomeScan)
T12 sequence (O14965 1-403): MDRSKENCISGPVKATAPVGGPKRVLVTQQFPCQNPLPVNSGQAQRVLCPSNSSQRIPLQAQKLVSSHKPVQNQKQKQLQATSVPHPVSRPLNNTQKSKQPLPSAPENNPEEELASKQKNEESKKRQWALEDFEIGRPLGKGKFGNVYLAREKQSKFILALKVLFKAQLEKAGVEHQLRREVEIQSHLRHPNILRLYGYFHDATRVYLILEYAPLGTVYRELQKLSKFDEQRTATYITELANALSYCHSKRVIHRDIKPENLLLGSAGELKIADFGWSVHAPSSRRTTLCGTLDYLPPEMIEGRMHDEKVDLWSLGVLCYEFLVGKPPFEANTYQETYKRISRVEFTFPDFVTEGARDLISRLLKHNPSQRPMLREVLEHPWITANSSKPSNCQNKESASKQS
The conditions noted are these: AURKA, 10 µM; read-out: score (%).

The target of test [14] is T13, KinomeScan kinase panel (Homo sapiens, UniProt P45984).
T13 construct: purchased DiscoveRx (KinomeScan)
T13 sequence (P45984 whole entry): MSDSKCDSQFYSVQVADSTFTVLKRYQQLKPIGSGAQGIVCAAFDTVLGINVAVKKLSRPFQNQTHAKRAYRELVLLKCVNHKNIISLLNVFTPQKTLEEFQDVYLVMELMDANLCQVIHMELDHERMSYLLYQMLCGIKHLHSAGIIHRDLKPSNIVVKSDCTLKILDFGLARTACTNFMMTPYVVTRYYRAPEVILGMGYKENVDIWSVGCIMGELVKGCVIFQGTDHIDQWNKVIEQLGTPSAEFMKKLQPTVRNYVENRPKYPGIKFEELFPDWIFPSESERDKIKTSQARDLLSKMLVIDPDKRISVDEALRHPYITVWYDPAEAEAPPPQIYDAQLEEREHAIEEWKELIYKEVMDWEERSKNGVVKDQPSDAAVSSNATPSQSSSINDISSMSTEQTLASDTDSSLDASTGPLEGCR
The following applies: JNK2, 10 µM.

Test [15] has as its target T14, KinomeScan kinase panel (Homo sapiens, UniProt Q9BUB5).
T14 construct: purchased DiscoveRx (KinomeScan)
The following applies: MKNK1, 10 µM; read-out: score (%).

Where [16] appears, read: EGFR(L747-E749del. A750P), 10 µM.
Where [17] appears, read: EGFR(L747-S752del. P753S), 10 µM.

SMILES strings stand for the structures. Several values for one entry are separate records, joined by “and”; a condition that tells them apart may be missing. Equal values may be shown once. Read-outs that look alike come from different tables or passages of the source. A value given as a limit tells only on which side of the number the result lay.

T2 sequence (P11362 22-822): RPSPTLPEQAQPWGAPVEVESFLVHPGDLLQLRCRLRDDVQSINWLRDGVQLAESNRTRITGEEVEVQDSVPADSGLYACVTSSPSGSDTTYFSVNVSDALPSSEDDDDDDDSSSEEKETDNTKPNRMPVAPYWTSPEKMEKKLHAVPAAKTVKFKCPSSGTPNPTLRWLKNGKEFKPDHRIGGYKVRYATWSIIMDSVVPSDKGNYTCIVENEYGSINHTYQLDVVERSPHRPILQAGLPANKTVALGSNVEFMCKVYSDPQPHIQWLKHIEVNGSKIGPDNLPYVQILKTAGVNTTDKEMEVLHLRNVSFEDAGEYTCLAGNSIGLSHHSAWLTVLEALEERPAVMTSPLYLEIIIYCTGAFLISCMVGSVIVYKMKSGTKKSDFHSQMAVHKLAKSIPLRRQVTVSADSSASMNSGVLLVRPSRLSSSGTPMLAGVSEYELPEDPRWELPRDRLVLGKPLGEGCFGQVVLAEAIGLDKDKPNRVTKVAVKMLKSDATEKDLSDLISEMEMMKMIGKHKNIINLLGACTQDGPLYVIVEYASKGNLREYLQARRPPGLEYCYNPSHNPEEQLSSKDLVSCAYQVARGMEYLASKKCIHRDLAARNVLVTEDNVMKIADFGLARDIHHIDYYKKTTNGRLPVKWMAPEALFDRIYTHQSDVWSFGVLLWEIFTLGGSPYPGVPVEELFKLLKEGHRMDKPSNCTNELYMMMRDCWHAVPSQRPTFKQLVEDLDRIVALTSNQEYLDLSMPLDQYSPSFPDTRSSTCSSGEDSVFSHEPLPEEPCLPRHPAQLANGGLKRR
T14 sequence (Q9BUB5 whole entry): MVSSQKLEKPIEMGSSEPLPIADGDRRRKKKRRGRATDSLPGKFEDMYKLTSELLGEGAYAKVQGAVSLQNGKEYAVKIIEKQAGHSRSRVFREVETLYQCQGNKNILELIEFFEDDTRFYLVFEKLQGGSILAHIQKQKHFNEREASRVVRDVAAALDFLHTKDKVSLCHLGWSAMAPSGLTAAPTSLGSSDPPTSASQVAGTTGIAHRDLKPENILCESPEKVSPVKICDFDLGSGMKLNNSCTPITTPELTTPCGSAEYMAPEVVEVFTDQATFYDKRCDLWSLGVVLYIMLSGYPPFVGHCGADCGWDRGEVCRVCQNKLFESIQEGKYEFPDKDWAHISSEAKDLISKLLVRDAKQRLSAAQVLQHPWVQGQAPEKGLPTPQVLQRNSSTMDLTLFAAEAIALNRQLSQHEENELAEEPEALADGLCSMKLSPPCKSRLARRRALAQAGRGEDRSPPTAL
T5 sequence (P53667 whole entry): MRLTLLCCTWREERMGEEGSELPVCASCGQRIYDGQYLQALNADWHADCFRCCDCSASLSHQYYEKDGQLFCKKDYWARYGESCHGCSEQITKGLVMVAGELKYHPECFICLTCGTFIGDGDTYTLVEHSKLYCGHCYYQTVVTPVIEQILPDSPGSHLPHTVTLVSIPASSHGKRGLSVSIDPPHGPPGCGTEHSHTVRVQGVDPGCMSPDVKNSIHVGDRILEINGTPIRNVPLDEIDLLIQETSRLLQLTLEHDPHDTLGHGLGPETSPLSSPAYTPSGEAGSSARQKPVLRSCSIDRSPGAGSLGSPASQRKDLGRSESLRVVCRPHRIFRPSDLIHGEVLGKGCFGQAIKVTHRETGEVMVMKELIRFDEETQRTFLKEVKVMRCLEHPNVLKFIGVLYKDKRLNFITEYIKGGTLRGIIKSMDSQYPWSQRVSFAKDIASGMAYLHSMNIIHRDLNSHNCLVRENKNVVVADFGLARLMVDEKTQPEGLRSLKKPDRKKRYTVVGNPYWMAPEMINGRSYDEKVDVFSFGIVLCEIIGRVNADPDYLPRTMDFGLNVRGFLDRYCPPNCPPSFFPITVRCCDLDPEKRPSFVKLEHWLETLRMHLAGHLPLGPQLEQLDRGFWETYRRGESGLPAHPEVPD

For the compound `CCN1CCN(Cc2ccc(NC(=O)c3ccc(C)c(NC(=O)c4cncc(-c5cccs5)c4)c3)cc2C(F)(F)F)CC1` [ALW-II-41-27], the remaining binding at 10 µM on KinomeScan kinase panel [1] is more than 30%; at KinomeScan kinase panel [2], 2.2%; at KinomeScan kinase panel [3] it was more than 30%; at KinomeScan kinase panel [5], 4.4%; at KinomeScan kinase panel [6], 23%; at KinomeScan kinase panel [7], more than 30%. Further, the remaining binding at 10 µM is 1.8% at KinomeScan kinase panel [8]; more than 30% on KinomeScan kinase panel [10] (RIOK3, 10 µM); 1.4% at KinomeScan kinase panel [11] (kinase TIE1, 10 µM); more than 30% at KinomeScan kinase panel [12]; more than 30% at KinomeScan kinase panel [13]; 14% at KinomeScan kinase panel [15]. Further, the “score (%)” value in the test with KinomeScan kinase panel [4] was 0.55% and 3% and 1.8%; with KinomeScan kinase panel [4] (FLT3(ITD), 10 µM), 0.4%; with KinomeScan kinase panel [4] (kinase TAO1, 10 µM), 12%; at KinomeScan kinase panel [9] it was “nb (Hits values higher than 30% were considered negative (no binding: nb))”; at KinomeScan kinase panel [14] it was 0.25%.
Regarding `CCN1CCN(Cc2ccc(NC(=O)c3ccc(C)c(/C=C/c4cnc5[nH]ccc5c4Cl)c3)cc2C(F)(F)F)CC1` [HG-6-63-01, (E)-3-(2-(4-chloro-1H-pyrrolo[2,3-b]pyridin-5-yl)vinyl)-N-(4-((4-ethylpiperazin-1-yl)methyl)-3-(trifluoromethyl)phenyl)-4-methylbenzamide], the remaining binding at 10 µM was more than 30% on KinomeScan kinase panel [1]; 0.7% at KinomeScan kinase panel [2]; more than 30% at KinomeScan kinase panel [3]; more than 30% on KinomeScan kinase panel [5]; 4.1% on KinomeScan kinase panel [6]; 29% on KinomeScan kinase panel [7]. Also, the remaining binding at 10 µM on KinomeScan kinase panel [8] is 0.9%; on KinomeScan kinase panel [10] (RIOK3, 10 µM), 0.35%; at KinomeScan kinase panel [11] (TIE1, 10 µM) it was 1.2%; at KinomeScan kinase panel [12], more than 30%; at KinomeScan kinase panel [13], 24%; on KinomeScan kinase panel [15], more than 30%. Further, the “score (%)” value with KinomeScan kinase panel [4] (setting [16]) is reported as 0%; in the test with KinomeScan kinase panel [4] (setting [17]) it was 0%; in the test with KinomeScan kinase panel [4] (EGFR(L747-T751del.Sins), 10 µM), 0%; in the test with KinomeScan kinase panel [4] (FLT3(ITD), 10 µM), 0.1%; on KinomeScan kinase panel [9], “nb (Hits values higher than 30% were considered negative (no binding: nb))”; at KinomeScan kinase panel [14] it was 1.1%.
`CCN1CCN(Cc2ccc(NC(=O)c3ccc(C)c(C#Cc4cccnc4)c3)cc2C(F)(F)F)CC1` [XMD15-44]: the remaining binding at 10 µM is 100% on KinomeScan kinase panel [1]; 0.25% at KinomeScan kinase panel [2]; 7.8% on KinomeScan kinase panel [3]; more than 30% at KinomeScan kinase panel [5]; 3% on KinomeScan kinase panel [6]; more than 30% at KinomeScan kinase panel [7]. Also, the remaining binding at 10 µM at KinomeScan kinase panel [8] is 0.3%; at KinomeScan kinase panel [10] (kinase RIOK3, 10 µM) it was 70%; at KinomeScan kinase panel [11] (kinase TIE1, 10 µM), 1.6%; on KinomeScan kinase panel [12] it was more than 30%; on KinomeScan kinase panel [13], more than 30%; at KinomeScan kinase panel [15], 0.25%. Also, the “score (%)” value with KinomeScan kinase panel [4] (setting [16]) is given as 1.2%; in the test on KinomeScan kinase panel [4] (setting [17]) it was 0.9%; with KinomeScan kinase panel [4] (EGFR(L747-T751del.Sins), 10 µM), 0.45%; in the test with KinomeScan kinase panel [4] (FLT3(ITD), 10 µM), 0.1%; at KinomeScan kinase panel [9], 10%; at KinomeScan kinase panel [14] it was 0%.
